These results are taken from patent US7118895B2, “Process for producing aglycon by using diglycosidase and flavor-improved food containing the aglycon and converting agent to be used in the process” (Amano Enzyme Inc., priority 2000, dated 2006).

Assay [1] has as its system Diglycosidase derived from A. fumigatus. As to the kind of experiment: Reactivity toward various isoflavone glycosides (HPLC). The format is biochemical, Aspergillus fumigatus. Set-up: unit not given here. Conditions: 55 °C, pH 4.0. The protocol: Diglycosidase was diluted with an acetate buffer of pH 4.0 to prepare a 0.75 AU/mL enzyme solution. As references, a similar operation was conducted using β-glucosidase (manufactured by Fluka) derived from Aspergillus niger, β-glucosidase (manufactured by Sigma) derived from almond, β-xylosidase derived from pectinase G (manufactured by Amano Enzyme Inc.). Each of purified products of isoflavone glycosides (glycitin, acetylglycitin, malonylglycitin, daidzin, acetyldaidzin, malonyldaidzin, genistin, acetylgenistin, malonylgenistin, all manufactured by Nacalai Tesque, Inc.) was dissolved in methanol to prepare each 2 mM substrate solution. The reaction was carried out by mixing 10 μL of a substrate solution, 200 μL of 20 mM acetate buffer (pH 4.0), and 40 μL of each purified enzyme solution at a total liquid volume of 250 μL. The reaction was carried out at 55° C. and isolation of an aglycon isoflavone from an isoflavone glycoside in the reaction mixture was detected by HLPC at 0, 1, 3, and 6 hours of the reaction.
To the reaction mixture was added 700 μL of ethanol, followed by stirring and ultrasonication. After centrifugation at 15,000 rpm and 4° C. for 10 minutes, the supernatant was filtered through a filter and then the filtrate was applied to HPLC.
The isoflavone glycoside and aglycon isoflavone contained in the filtrate was separated and detected by a high performance liquid chromatography (HPLC, Shimadzu CLASS LC-10 system) using TOSOH TSK gel ODS-80TM column (manufactured by Tosoh Corporation). […] The absorbance at 260 nm was detected by a UV detector (Shimadzu, SPD-10AV). Using purified products (manufactured by Nacalai Tesque, Inc.) of the above isoflavone glycosides and aglycon isoflavones, the isoflavone glycoside and aglycon isoflavone were quantitatively determined according to a calibration curve method. By the way, unless otherwise stated, the measuring conditions of HPLC herein mean those described in the example.

Assay [2] has as its system Purified diglycosidase. As to the kind of experiment: Influence of free glucose on diglycosidase activity. Conditions: isolated aglycon amount at glucose 0% and 0.5 hour = 100%. It is filed as biochemical, Penicillium multicolor IAM7153. The protocol:
Purified diglycosidase was diluted with 20 mM acetate buffer of pH 4.0 to prepare a 0.75 AU/mL enzyme solution.
With a glucose solution was mixed 10 μL of each 2 mM substrate solution described in Example 2, and 20 mM acetate buffer of pH 4.0 was added thereto to be a liquid volume of 210 μL. Further, 40 μL of the enzyme solution was added and reaction was carried out at a final liquid volume of 250 μL. Adjustment of the glucose solution to be added allows glucose to exist in the reaction mixture in the range of 0 to 20%. The reaction was carried out at 55° C. and the existence of isoflavone glycosides and aglycon isoflavones was detected by HLPC at 0, 0.5, 1, and 3 hours of the reaction.

For assay [3], the system named is β-Xylosidase derived from pectinase G. As to the kind of experiment: Reactivity toward various isoflavone glycosides (HPLC). It is filed as biochemical. Further details: unit not given here. Conditions: 55 °C, pH 4.0. Summed up:
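Aglycone liberation was measured by reversed-phase HPLC (260 nm, calibration-curve quantitation) after ethanol extraction at 0, 1, 3 and 6 h. Reactions ran at 55° C, pH 4.0 (20 mM acetate), with each glycoside (from 2 mM methanol stock) and 0.75 AU/mL enzyme solution.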

Regarding `CC(=O)OC[C@H]1O[C@@H](Oc2ccc3c(=O)c(-c4ccc(O)cc4)coc3c2)[C@H](O)[C@@H](O)[C@@H]1O` [acetyldaidzin, 6″-O-acetyldaidzin], the aglycon in assay [1] (Reaction time 0 h) stood at 0; in assay [1] (Reaction time 1 h), 26.1; in assay [1] (Reaction time 3 h), 47.2; in assay [1] (Reaction time 6 h), 66.5; in assay [3] (Reaction time 0 h), 0; in assay [3] (Reaction time 1 h), 9.7. The figures for the aglycon in assay [3] (Reaction time 3 h) and in assay [3] (Reaction time 6 h) were 1.3 and 2.3, respectively. The glucoside amounted to 100 in assay [1] (Reaction time 0 h); 73.9 in assay [1] (Reaction time 1 h); 52.8 in assay [1] (Reaction time 3 h); 33.5 in assay [1] (Reaction time 6 h); 100 in assay [3] (Reaction time 0 h); 90.3 in assay [3] (Reaction time 1 h). Moreover, the glucoside was 98.7 in assay [3] (Reaction time 3 h) and 97.7 in assay [3] (Reaction time 6 h). Further, the “Isolation of isoflavone aglycons by diglycosidase in presence of glucose” value (“Isolation of isoflavone aglycons” below) amounted to 100% in assay [2] (Glucose concentration 0 %); 108.1% in assay [2] (Glucose concentration 2 %); 112.2% in assay [2] (Glucose concentration 4 %); 115.8% in assay [2] (Glucose concentration 8 %); 114.5% in assay [2] (Glucose concentration 20 %).
In the case of `CC(=O)OC[C@H]1O[C@@H](Oc2cc(O)c3c(=O)c(-c4ccc(O)cc4)coc3c2)[C@H](O)[C@@H](O)[C@@H]1O` [acetylgenistin, 6″-O-acetylgenistin], the aglycon in assay [1] (Reaction time 0 h) came out at 0; in assay [1] (Reaction time 1 h), 12.6; in assay [1] (Reaction time 3 h), 22.9; in assay [1] (Reaction time 6 h), 35.2; in assay [3] (Reaction time 0 h), 0; in assay [3] (Reaction time 1 h) it was 0. The aglycon in assay [3] (Reaction time 3 h) turned out to be 0.2; in assay [3] (Reaction time 6 h) it was 0.5. Besides, the glucoside in assay [1] (Reaction time 0 h) amounted to 100; in assay [1] (Reaction time 1 h) it was 87.4; in assay [1] (Reaction time 3 h) it was 77.1; in assay [1] (Reaction time 6 h) it was 64.8; in assay [3] (Reaction time 0 h) it was 100; in assay [3] (Reaction time 1 h), 100. Besides, the glucoside in assay [3] (Reaction time 3 h) came to 99.8; in assay [3] (Reaction time 6 h) it was 99.5. The “Isolation of isoflavone aglycons” value worked out at 100% in assay [2] (Glucose concentration 0 %); 104.1% in assay [2] (Glucose concentration 2 %); 104.1% in assay [2] (Glucose concentration 4 %); 104.1% in assay [2] (Glucose concentration 8 %); 104.1% in assay [2] (Glucose concentration 20 %).
With `COc1cc2c(=O)c(-c3ccc(O)cc3)coc2cc1O[C@@H]1O[C@H](COC(C)=O)[C@@H](O)[C@H](O)[C@H]1O` [acetylglycitin, 6″-O-acetylglycitin], the aglycon came to 0 in assay [1] (Reaction time 0 h); 6 in assay [1] (Reaction time 1 h); 13.5 in assay [1] (Reaction time 3 h); 22.7 in assay [1] (Reaction time 6 h); 0 in assay [3] (Reaction time 0 h); 0 in assay [3] (Reaction time 1 h). In addition, the aglycon in assay [3] (Reaction time 3 h) and in assay [3] (Reaction time 6 h) was 0 throughout. Besides, the glucoside in assay [1] (Reaction time 0 h) is given as 100; in assay [1] (Reaction time 1 h), 94; in assay [1] (Reaction time 3 h), 86.5; in assay [1] (Reaction time 6 h), 77.3; in assay [3] (Reaction time 0 h) it was 100; in assay [3] (Reaction time 1 h) it was 100. Further, the glucoside in assay [3] (Reaction time 3 h) and in assay [3] (Reaction time 6 h) was 100 throughout. The “Isolation of isoflavone aglycons” value in assay [2] (Glucose concentration 0 %) stood at 100%; in assay [2] (Glucose concentration 2 %), 100.9%; in assay [2] (Glucose concentration 4 %), 100.9%; in assay [2] (Glucose concentration 8 %) it was 100.9%; in assay [2] (Glucose concentration 20 %) it was 100.9%.
In the case of `O=c1c(-c2ccc(O)cc2)coc2cc(O[C@@H]3O[C@H](CO)[C@@H](O)[C@H](O)[C@H]3O)ccc12` [daidzin], the aglycon in assay [1] (Reaction time 0 h) came to 0.9; in assay [1] (Reaction time 1 h), 7.1; in assay [1] (Reaction time 3 h), 14.7; in assay [1] (Reaction time 6 h), 24.8; in assay [3] (Reaction time 0 h), 0.9; in assay [3] (Reaction time 1 h), 9.1. The aglycon came to 24 in assay [3] (Reaction time 3 h) and 42.1 in assay [3] (Reaction time 6 h). The glucoside was 99.1 in assay [1] (Reaction time 0 h); 92.9 in assay [1] (Reaction time 1 h); 85.3 in assay [1] (Reaction time 3 h); 75.2 in assay [1] (Reaction time 6 h); 99.1 in assay [3] (Reaction time 0 h); 90.9 in assay [3] (Reaction time 1 h). Moreover, the glucoside in assay [3] (Reaction time 3 h) is listed as 76; in assay [3] (Reaction time 6 h) it was 57.9. Also, the “Isolation of isoflavone aglycons” value in assay [2] (Glucose concentration 0 %) came to 100%; in assay [2] (Glucose concentration 2 %), 128.1%; in assay [2] (Glucose concentration 4 %) it was 126%; in assay [2] (Glucose concentration 8 %), 129.1%; in assay [2] (Glucose concentration 20 %) it was 111.9%.
With `O=c1c(-c2ccc(O)cc2)coc2cc(O[C@@H]3O[C@H](CO)[C@@H](O)[C@H](O)[C@H]3O)cc(O)c12` [genistin], the aglycon in assay [1] (Reaction time 0 h) is reported as 0; in assay [1] (Reaction time 1 h) it was 0; in assay [1] (Reaction time 3 h), 0; in assay [1] (Reaction time 6 h), 0; in assay [3] (Reaction time 0 h), 0; in assay [3] (Reaction time 1 h), 1.5. The aglycon in assay [3] (Reaction time 3 h) and in assay [3] (Reaction time 6 h) was 1.8 each time. The glucoside stood at 100 in assay [1] (Reaction time 0 h); 100 in assay [1] (Reaction time 1 h); 100 in assay [1] (Reaction time 3 h); 100 in assay [1] (Reaction time 6 h); 100 in assay [3] (Reaction time 0 h); 98.5 in assay [3] (Reaction time 1 h). Besides, the glucoside in assay [3] (Reaction time 3 h) and in assay [3] (Reaction time 6 h) was 98.2 each time.
Regarding `COc1cc2c(=O)c(-c3ccc(O)cc3)coc2cc1O[C@@H]1O[C@H](CO)[C@@H](O)[C@H](O)[C@H]1O` [glycitin], the aglycon was 0 in assay [1] (Reaction time 0 h); 0.5 in assay [1] (Reaction time 1 h); 0 in assay [1] (Reaction time 3 h); 0 in assay [1] (Reaction time 6 h); 0 in assay [3] (Reaction time 0 h); 0.8 in assay [3] (Reaction time 1 h). Moreover, the aglycon in assay [3] (Reaction time 3 h) turned out to be 2.4; in assay [3] (Reaction time 6 h), 4.5. Moreover, the glucoside is recorded as 100 in assay [1] (Reaction time 0 h); 99.5 in assay [1] (Reaction time 1 h); 100 in assay [1] (Reaction time 3 h); 100 in assay [1] (Reaction time 6 h); 100 in assay [3] (Reaction time 0 h); 99.2 in assay [3] (Reaction time 1 h). The glucoside in assay [3] (Reaction time 3 h) stood at 97.6; in assay [3] (Reaction time 6 h), 95.5. Further, the “Isolation of isoflavone aglycons” value in assay [2] (Glucose concentration 0 %) came to 100%; in assay [2] (Glucose concentration 2 %), 96%; in assay [2] (Glucose concentration 4 %) it was 99.7%; in assay [2] (Glucose concentration 8 %), 100.1%; in assay [2] (Glucose concentration 20 %), 92.8%.
